Activity calls are given as the source filed them. The calls are words filed in the database; no cut-off is given here.

As usually defined, the inhibition is the relative decrease from the control value, in per cent.

The target of the first assay is T1, Androgen receptor (Homo sapiens) (UniProt P10275).
T1 sequence (whole entry): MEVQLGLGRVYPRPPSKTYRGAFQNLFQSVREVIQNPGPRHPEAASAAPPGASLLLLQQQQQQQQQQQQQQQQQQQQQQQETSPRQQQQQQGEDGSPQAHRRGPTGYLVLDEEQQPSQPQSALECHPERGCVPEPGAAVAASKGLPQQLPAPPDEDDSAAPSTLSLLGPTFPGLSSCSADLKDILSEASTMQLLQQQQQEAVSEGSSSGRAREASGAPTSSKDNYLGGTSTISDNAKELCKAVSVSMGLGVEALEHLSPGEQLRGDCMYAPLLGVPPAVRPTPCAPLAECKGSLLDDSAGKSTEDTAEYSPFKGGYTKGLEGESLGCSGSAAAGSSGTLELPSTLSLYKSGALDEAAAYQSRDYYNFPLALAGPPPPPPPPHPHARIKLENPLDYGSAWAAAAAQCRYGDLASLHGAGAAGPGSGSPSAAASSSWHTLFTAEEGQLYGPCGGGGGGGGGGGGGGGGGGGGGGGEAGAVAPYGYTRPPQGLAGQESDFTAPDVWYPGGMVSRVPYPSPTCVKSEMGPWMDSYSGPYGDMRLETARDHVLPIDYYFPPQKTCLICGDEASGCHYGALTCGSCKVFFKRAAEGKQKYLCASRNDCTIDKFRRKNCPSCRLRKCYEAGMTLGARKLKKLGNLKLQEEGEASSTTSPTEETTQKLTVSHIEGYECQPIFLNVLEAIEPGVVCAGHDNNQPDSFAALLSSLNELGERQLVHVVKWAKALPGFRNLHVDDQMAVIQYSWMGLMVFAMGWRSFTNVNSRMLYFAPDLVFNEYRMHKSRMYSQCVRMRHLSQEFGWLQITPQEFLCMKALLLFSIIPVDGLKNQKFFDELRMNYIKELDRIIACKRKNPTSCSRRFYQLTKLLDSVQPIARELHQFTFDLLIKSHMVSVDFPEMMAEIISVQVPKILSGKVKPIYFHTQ
Briefly: Antagonist activity at AR in human LNCaP-abl cells assessed as reduction in phosphorylation at S81 at 10 uM incubated for 24 hrs in presence of R1881 by Western blotting analysis. Format: cell-based. The settings on record: filed as antagonist. (In western blotting, separated proteins are transferred to a membrane and probed.)
As for `Cc1c2c(nn1-c1ccc(C#N)cc1)C[C@@H]1CC[C@@H]3[C@H](CC[C@]4(C)C(=O)CC[C@@H]34)[C@@]1(C)C2`, the outcome was Active.

Another assay addresses T1, Androgen receptor (Homo sapiens). Briefly: Antagonist activity at AR in human LAPC4 cells assessed as reduction in Nkx3.1 expression at 10 uM incubated for 24 hrs in presence of R1881 by Western blotting analysis. The assay is classed as cell-based. The settings on record: filed as antagonist.
In the case of `Cn1nc2c(c1-c1ccco1)C[C@@]1(C)[C@@H](CC[C@@H]3[C@@H]1CC[C@]1(C)[C@@H](O)CC[C@@H]31)C2`, the outcome was Active.
On the same count and under the same terms, as for `Cn1nc2c(c1-c1cccs1)C[C@@]1(C)[C@@H](CC[C@@H]3[C@@H]1CC[C@]1(C)[C@@H](O)CC[C@@H]31)C2`, the entry is “Active”; as for `Cn1nc2c(c1-c1ccc(Br)cc1)C[C@@]1(C)[C@@H](CC[C@@H]3[C@@H]1CC[C@]1(C)C(=O)CC[C@@H]31)C2`, “Active”; as for `Cc1c2c(nn1-c1ccccc1)C[C@@H]1CC[C@@H]3[C@H](CC[C@]4(C)[C@@H](O)CC[C@@H]34)[C@@]1(C)C2`, “Active”.

Test system in another assay: not listed separately
Nature of the assay: Downregulation of AR protein expression in human LAPC4 cells assessed as AR levels at 10 uM incubated for 24 hrs by immunoblotting analysis. The assay is classed as functional.
Conditions: not given
Regarding `Cn1nc2c(c1-c1ccco1)C[C@@]1(C)[C@@H](CC[C@@H]3[C@@H]1CC[C@]1(C)[C@@H](O)CC[C@@H]31)C2`, the Activity is on record as 78%.
On the same count and under the same terms, as for `Cn1nc2c(c1-c1cccs1)C[C@@]1(C)[C@@H](CC[C@@H]3[C@@H]1CC[C@]1(C)[C@@H](O)CC[C@@H]31)C2`, the figure is 87%; as for `Cn1nc2c(c1-c1ccc(Br)cc1)C[C@@]1(C)[C@@H](CC[C@@H]3[C@@H]1CC[C@]1(C)C(=O)CC[C@@H]31)C2`, 49%.

The test system of a further assay is DU-145. Nature of the assay: Cytotoxicity against human DU-145 cells assessed as cell viability at 20 uM incubated for 72 hrs by resazurin dye based microplate reader assay. The assay is classed as functional. The settings on record: read-out: Activity. (In general: Alamar Blue is a resazurin reagent that responds to reducing activity.)
Take `Cn1nc2c(c1-c1ccco1)C[C@@]1(C)[C@@H](CC[C@@H]3[C@@H]1CC[C@]1(C)[C@@H](O)CC[C@@H]31)C2`: the viability at 20 µM was found to be 100%.
With `Cn1nc2c(c1-c1cccs1)C[C@@]1(C)[C@@H](CC[C@@H]3[C@@H]1CC[C@]1(C)[C@@H](O)CC[C@@H]31)C2`, the viability at 20 µM was found to be 100%.
`Cn1nc2c(c1-c1ccc(Br)cc1)C[C@@]1(C)[C@@H](CC[C@@H]3[C@@H]1CC[C@]1(C)C(=O)CC[C@@H]31)C2`: the viability at 20 µM is 96%.
As to `Cc1c2c(nn1-c1ccc(C#N)cc1)C[C@@H]1CC[C@@H]3[C@H](CC[C@]4(C)C(=O)CC[C@@H]34)[C@@]1(C)C2`, the viability at 20 µM was not below 100%.
The same measure, in the same setting: as for `Cc1c2c(nn1-c1ccccc1)C[C@@H]1CC[C@@H]3[C@H](CC[C@]4(C)[C@@H](O)CC[C@@H]34)[C@@]1(C)C2`, the figure is 97%.

Another assay relates to LAPC4. Briefly: Inhibition of colony formation in human LAPC4 cells at 10 uM incubated for 10 days by crystal violet staining based assay. Format: functional. The settings on record: LAPC4, 240 h, time 10 day.
Compound `Cn1nc2c(c1-c1ccco1)C[C@@]1(C)[C@@H](CC[C@@H]3[C@@H]1CC[C@]1(C)[C@@H](O)CC[C@@H]31)C2` came in with an inhibition at 10 µM of 2%.
`Cn1nc2c(c1-c1cccs1)C[C@@]1(C)[C@@H](CC[C@@H]3[C@@H]1CC[C@]1(C)[C@@H](O)CC[C@@H]31)C2` came in with an inhibition at 10 µM of 1%.
`Cn1nc2c(c1-c1ccc(Br)cc1)C[C@@]1(C)[C@@H](CC[C@@H]3[C@@H]1CC[C@]1(C)C(=O)CC[C@@H]31)C2` displayed an inhibition at 10 µM of 15%.
`Cc1c2c(nn1-c1ccc(C#N)cc1)C[C@@H]1CC[C@@H]3[C@H](CC[C@]4(C)C(=O)CC[C@@H]34)[C@@]1(C)C2`: the inhibition at 10 µM worked out at 29%.
Still for that read-out and setting: to `Cc1c2c(nn1-c1ccccc1)C[C@@H]1CC[C@@H]3[C@H](CC[C@]4(C)[C@@H](O)CC[C@@H]34)[C@@]1(C)C2` belongs 1%.

In another assay the test system is CWR22R. Nature of the assay: Cytotoxicity against human 22Rv1 cells assessed as cell viability at 20 uM incubated for 72 hrs by resazurin dye based microplate reader assay. The settings on record: read-out: Activity. Format: functional.
With `Cn1nc2c(c1-c1ccco1)C[C@@]1(C)[C@@H](CC[C@@H]3[C@@H]1CC[C@]1(C)[C@@H](O)CC[C@@H]31)C2`, the viability at 20 µM was 18%.
Turning to `Cn1nc2c(c1-c1cccs1)C[C@@]1(C)[C@@H](CC[C@@H]3[C@@H]1CC[C@]1(C)[C@@H](O)CC[C@@H]31)C2`, the viability at 20 µM worked out at 44%.
Turning to `Cn1nc2c(c1-c1ccc(Br)cc1)C[C@@]1(C)[C@@H](CC[C@@H]3[C@@H]1CC[C@]1(C)C(=O)CC[C@@H]31)C2`, the viability at 20 µM came out at 56%.
On the same count and under the same terms, to `Cc1c2c(nn1-c1ccc(C#N)cc1)C[C@@H]1CC[C@@H]3[C@H](CC[C@]4(C)C(=O)CC[C@@H]34)[C@@]1(C)C2` belongs 87%; to `Cc1c2c(nn1-c1ccccc1)C[C@@H]1CC[C@@H]3[C@H](CC[C@]4(C)[C@@H](O)CC[C@@H]34)[C@@]1(C)C2`, 24%.

The next assay deals with LAPC4. Nature of the assay: Cytotoxicity against human LAPC4 cells assessed as cell viability at 20 uM incubated for 72 hrs by resazurin dye based microplate reader assay. The assay is classed as functional. The settings on record: read-out: Activity.
With `Cn1nc2c(c1-c1ccco1)C[C@@]1(C)[C@@H](CC[C@@H]3[C@@H]1CC[C@]1(C)[C@@H](O)CC[C@@H]31)C2`, the viability at 20 µM came to 50%.
In the case of `Cn1nc2c(c1-c1cccs1)C[C@@]1(C)[C@@H](CC[C@@H]3[C@@H]1CC[C@]1(C)[C@@H](O)CC[C@@H]31)C2`, the viability at 20 µM amounted to 46%.
As to `Cn1nc2c(c1-c1ccc(Br)cc1)C[C@@]1(C)[C@@H](CC[C@@H]3[C@@H]1CC[C@]1(C)C(=O)CC[C@@H]31)C2`, the viability at 20 µM is 20%.
In the case of `Cc1c2c(nn1-c1ccc(C#N)cc1)C[C@@H]1CC[C@@H]3[C@H](CC[C@]4(C)C(=O)CC[C@@H]34)[C@@]1(C)C2`, the viability at 20 µM is 78%.
`Cc1c2c(nn1-c1ccccc1)C[C@@H]1CC[C@@H]3[C@H](CC[C@]4(C)[C@@H](O)CC[C@@H]34)[C@@]1(C)C2`: the viability at 20 µM was 65%.

Another assay concerns LAPC4. Nature of the assay: Inhibition of colony formation in human LAPC4 cells at 5 uM incubated for 10 days by crystal violet staining based assay. Format: functional, cell-based. The settings on record: time 10.0 day.
Take `Cn1nc2c(c1-c1ccco1)C[C@@]1(C)[C@@H](CC[C@@H]3[C@@H]1CC[C@]1(C)[C@@H](O)CC[C@@H]31)C2`: the inhibition entry is “Active”.
With `Cn1nc2c(c1-c1cccs1)C[C@@]1(C)[C@@H](CC[C@@H]3[C@@H]1CC[C@]1(C)[C@@H](O)CC[C@@H]31)C2`, the inhibition entry was “Active”.
For the compound `Cn1nc2c(c1-c1ccc(Br)cc1)C[C@@]1(C)[C@@H](CC[C@@H]3[C@@H]1CC[C@]1(C)C(=O)CC[C@@H]31)C2`, the inhibition entry is “Active”.
Still for that read-out and setting: to `Cc1c2c(nn1-c1ccc(C#N)cc1)C[C@@H]1CC[C@@H]3[C@H](CC[C@]4(C)C(=O)CC[C@@H]34)[C@@]1(C)C2` belongs “Active”; to `Cc1c2c(nn1-c1ccccc1)C[C@@H]1CC[C@@H]3[C@H](CC[C@]4(C)[C@@H](O)CC[C@@H]34)[C@@]1(C)C2`, “Active”.

A further assay deals with T1, Androgen receptor (Homo sapiens). Nature of the assay: Antagonist activity at AR in human LNCaP-abl cells assessed as reduction in PSA expression at 10 uM incubated for 24 hrs in presence of R1881 by Western blotting analysis. Format: cell-based. The settings on record: filed as antagonist.
Consider `Cc1c2c(nn1-c1ccc(C#N)cc1)C[C@@H]1CC[C@@H]3[C@H](CC[C@]4(C)C(=O)CC[C@@H]34)[C@@]1(C)C2`, for which the result was Active.

The next assay shares this target. Nature of the assay: Antagonist activity at AR in human LAPC4 cells assessed as reduction in PSA expression at 10 uM incubated for 24 hrs in presence of R1881 by Western blotting analysis. Format: cell-based. The settings on record: filed as antagonist.
Consider `Cn1nc2c(c1-c1ccco1)C[C@@]1(C)[C@@H](CC[C@@H]3[C@@H]1CC[C@]1(C)[C@@H](O)CC[C@@H]31)C2`, for which the outcome was Active.
Turning to `Cn1nc2c(c1-c1cccs1)C[C@@]1(C)[C@@H](CC[C@@H]3[C@@H]1CC[C@]1(C)[C@@H](O)CC[C@@H]31)C2`, the result was Active.
On to `Cn1nc2c(c1-c1ccc(Br)cc1)C[C@@]1(C)[C@@H](CC[C@@H]3[C@@H]1CC[C@]1(C)C(=O)CC[C@@H]31)C2`, for which the outcome was Active.
For `Cc1c2c(nn1-c1ccccc1)C[C@@H]1CC[C@@H]3[C@H](CC[C@]4(C)[C@@H](O)CC[C@@H]34)[C@@]1(C)C2`, the result was Active.

For the origin of these results see ChEMBL document CHEMBL5346877, “A-ring-fused pyrazoles of dihydrotestosterone targeting prostate cancer cells via the downregulation of the androgen receptor” (Eur J Med Chem, 2023).
